{
  "source": "patent US20210121486A1",
  "about": "“ANIMAL THERAPEUTIC AND FEED COMPOSITIONS AND METHODS OF USE” (Cadena Bio, Inc., priority 2015, published 2021)",
  "test_system": "common gut microbes",
  "assay": "Gut microbe growth on carbohydrate food sources (96-well carbohydrate array, A600 growth curves), whole panel",
  "format": "cell-based",
  "conditions": "all of the gut microflora cultures, sole carbohydrate source, anaerobic, 37° C.",
  "description": "The ability of common gut microbes to grow on carbohydrate food sources was measured using a custom carbohydrate array constructed in a 96-well format. See for example, Martens E C, et al, “Recognition and Degradation of Plant Cell Wall Polysaccharides by Two Human Gut Symbionts,” PLOS Biology, volume 9, issue 12, page e1001221 (2011) and Martens E C, Chiang H C, Gordon J I, “Mucosal glycan foraging enhances fitness and transmission of a saccharolytic human gut bacterial symbiont.” Cell Host Microbe 4: 447-457 (2008). Each well of a flat bottom 96-well plate was loaded with 100 µL of each sterilized carbohydrate stock at 2× concentration.\nEach substrate was represented in […] on each assay plate in two non-adjacent wells. Two carbohydrate-free water wells were included as negative controls. […] Plates were then loaded into an automated plate handling device coupled to an absorbance reader. Absorbance at 600 nm (A600) was measured for each well at 10-15 min intervals. […]",
  "data": [
    {"compound": "CC(=O)N[C@H]1C(O)O[C@H](CO)[C@@H](O)[C@@H]1O", "note": "(stereo partly shown) [N-acetylglucosamine]", "values": [
      {"measurement": "growth of the gut microflora cultures on the carbohydrate", "result": "grew well"}
    ]}
  ]
}
